Experimental data published in patent publication US6069132A, “Phosphazole compounds” (priority 1997, dated 2000).
Values after ≈ are worked out from the molar mass of the structure shown. Like-named read-outs stand apart in the source and are kept apart here.

How the values were obtained:
[1] = cited from earlier work
herpesviruses = details: cited from earlier work
normal cells = details: relative to antiviral concentrations; cited from earlier work
[2] = Cytotoxicity on static MRC-5 cells; assay type: cell-based; details: human, Table 4, 50% cell death (static cells), read-out: TC50 Static MRC-5
Experimental: (§1) Cell Culture. Vero (African Green Monkey kidney cells) and MRC-5 (diploid Human Embryonic Lung fibroblasts) cells were obtained from the American Type Culture Collection (ATCC) and were grown in minimal essential medium (MEM) with Earl's salts and glutamine (GIBCO BRL, Life Technologies, Inc.) with 10% heat inactivated fetal bovine serum (GIBCO BRL) and penicillin (100 μg/mL)/streptomycin (100 μg/mL).
(§2) Cytotoxicity Analysis. The cytotoxicity of the compound was assayed using few the CellTiter 96™ Aqueous Non-Radioactive Cell Proliferation (MTS) Assay (Promega). Briefly, viable cell number was determined by trypan blue staining and cells (MRC-5 and Vero) were resuspended in minimal essential medium (MEM) supplemented with 10% FBS (GIBCO). Eighty microliters of cell suspension (1.7×10^4 cells/well) was dispensed onto a 96-well microtiter plates. At this time 20 μL of drug (or control) was added to appropriate wells. Each concentration was assayed in quadruplicate. The plates were incubated at 37° C. in a humidified 5% CO2 atmosphere for 4 days and MTS assay was performed according to the manufacturer's instructions. The average absorbence of the sample was graphed for each concentration and the data obtained was used to calculate TC50 (the concentration necessary to give one-half maximum growth) for each compound.

[3] = test system: bone marrow progenitor cells; details: cited from earlier work
[4] = Cytotoxicity on growing Vero cells (MTS); assay type: cell-based; details: african green monkey, Table 4, 50% inhibition of logphase growing cells, read-out: TC50 Growing Vero
Experimental: as §1, §2

HCMV (Town strain) = test: HCMV plaque reduction (CPE) assay in MRC-5 cells; assay type: cell-based, human cytomegalovirus; details: Human betaherpesvirus 5, MRC5; Table 4; read-out: IC50 HCMV
Experimental: The adenine analog phosphazole (compound T70241) was assayed for antiviral activity using a HCMV plaque reduction assay, in accordance with known methods such as that described in U.S. Pat. No. 5,446,045.
as §1
CMV Cytopathic Effect (CPE) Assay. Assays were performed essentially as described by Lewis et al. (111), which report is incorporated herein by reference. MRC-5 cells (100,000 cells/well) were seeded in 24-well plates overnight. Medium was then removed and wells were rinsed once with 250 μL of 2% FCS-MEM before adding 40-50 pfu of HCMV (Town strain) to each well. After 2 hours of virus adsorption, the medium was removed and the cells were rinsed once with 2% FCS-MEM. Varying concentrations of the phosphazole compound in the culture medium (1 mL) was then added to appropriate wells and plates were incubated for 5-6 days at 37° C. in a humidified 5% CO2 atmosphere. Each concentration was tested in duplicate wells.
The extent of the plaque reduction was quantitated by removing the media and adding 200 μL of 0.1% crystal violet in 20% methanol to all wells. The crystal violet was then removed after 10 min staining at room temperature by rinsing in the sink with tap water and the plates dried overnight. The plaques were then counted using a Nikon inverted microscope.

[5] = Cytotoxicity on static Vero cells; assay type: cell-based; details: african green monkey, Table 4, 50% cell death (static cells), read-out: TC50 Static Vero
Experimental: as §1, §2

[6] = Cytotoxicity on growing MRC-5 cells (MTS); assay type: cell-based, human; details: human, mrc-5 cells; Table 4; 50% inhibition of logphase growing cells; read-out: TC50 Growing MRC-5
Experimental: as §1, §2

[7] = test system: human B-lymphoblast (Raji) cells; details: in culture; cited from earlier work
[8] = test system: vesicular stomatitis virus; details: in culture; cited from earlier work
coxsackie B4 virus = details: in culture; cited from earlier work
vaccinia virus = details: in culture; cited from earlier work
[9] = test system: human T-lymphoblast (Molt-4F) cells; details: in culture; cited from earlier work
[10] = test system: murine leukemia (L1210) cells; details: in culture; cited from earlier work
[11] = test system: murine mammary carcinoma (FM3) cells; details: in culture; cited from earlier work

Structure (SMILES) | clinical toxicity ([1]; patients) | activity against herpesviruses (herpesviruses) | concentration needed to inhibit growth of normal cells (normal cells) | CC50 at 96 h [2] [µg/mL] | toxicity to bone marrow progenitor cells [3] | clinical toxicity ([1]; human, in vivo) | CC50 at 96 h [4] [µg/mL] | IC50 (HCMV (Town strain)) [µg/mL] | CC50 at 96 h [5] [µg/mL] | CC50 at 96 h [6] [µg/mL] | inhibition of proliferation of Raji [7] | activity against vesicular stomatitis virus [8] | activity against coxsackie B4 virus (coxsackie B4 virus) | activity against vaccinia virus (vaccinia virus) | inhibition of proliferation of Molt-4F [9] | inhibition of proliferation of L1210 [10] | inhibition of proliferation of FM3 [11]
O=C(O)P(=O)(O)O [foscarnet] | nephrotoxicity, hypocalcemia, and seizures in some patients | observed activity against all known human herpesviruses | – | – | – | – | – | – | – | – | – | – | – | – | – | – | –
Nc1nc(O)c2ncn(COC(CO)CO)c2n1 [DHPG, ganciclovir, reference compound] | – | potent inhibitor of most human and animal herpes viruses in culture | much higher concentrations are needed to inhibit cell growth of normal cells | > 250 | toxic to bone marrow progenitor cells in culture | most clinical toxicity is myelosuppression | > 250 | 3.5 (≈ 13.7 µM) | > 250 | > 250 | – | – | – | – | – | – | –
CCOP(=O)(OCC)c1nc2c(Cl)ncnc2n1[C@@H]1O[C@H](CO)[C@@H](O)[C@H]1O [compound 1, Diethyl 6-chloro-9-(β-D-ribofuranosyl)purine-8-phosphate] | – | – | – | – | – | – | – | – | – | – | inhibitory | significant activity | significant activity | significant activity | inhibitory | inhibitory | inhibitory
